Target: T1, protein tyrosine phosphatase-1B (PTP-1B) (Homo sapiens, UniProt P18031)
T1 construct: gene PTPN1; recombinant PTP-1B
T1 sequence (P18031 1-435): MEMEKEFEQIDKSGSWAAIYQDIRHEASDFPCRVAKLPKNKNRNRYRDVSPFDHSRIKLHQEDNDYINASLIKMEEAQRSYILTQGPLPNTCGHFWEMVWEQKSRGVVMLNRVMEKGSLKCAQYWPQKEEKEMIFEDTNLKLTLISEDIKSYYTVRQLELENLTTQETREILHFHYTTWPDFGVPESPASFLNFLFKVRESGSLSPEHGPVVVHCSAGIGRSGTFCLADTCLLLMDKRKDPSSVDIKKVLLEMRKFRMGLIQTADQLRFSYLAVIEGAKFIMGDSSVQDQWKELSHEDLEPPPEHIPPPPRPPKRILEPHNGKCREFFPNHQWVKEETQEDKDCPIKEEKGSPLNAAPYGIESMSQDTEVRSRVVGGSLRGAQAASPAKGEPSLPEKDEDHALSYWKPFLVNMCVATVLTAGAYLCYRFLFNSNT
Experiment: pNPP phosphatase assay with recombinant enzyme, absorbance at […] nm
Format: biochemical

COC(=O)[C@@H]1C[C@@]23C=CCN4CC[C@@]5(c6ccccc6N[C@]15[C@@H]2C)[C@@H]43 [IV, vindolinine]
pNPP phosphatase assay with recombinant enzyme, absorbance at 405 nm: compounds II–IV demonstrated good protein tyrosine phosphatase-1B (PTP-1B) inhibition activity
